Reference: the supplement of paper PMC11451515

What was measured:
Conditions in all cases: 48 h
NOMO1 [1] = experiment: cell viability relative to DMSO control; higher = less cytotoxic
Outline: (§1)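 Three leukemia lines were tested: NOMO1 and SEM at 500 cells/well and P12-Ichikawa at 1000 cells/well. Each was adapted for at least four passages in each medium and seeded in 5 μl in 1536-well plates, and library compounds in DMSO were pin-dosed from 47 μM to 0.79 nM in 11 threefold steps. After 48 h at 37°C, CellTiter-Glo One luminescence was read. Viability is a percentage relative to DMSO wells on each plate, with cell-free wells as background.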

P12-Ichikawa [2] = experiment: as above
Outline: as §1

SEM cells [3] = experiment: as above
Outline: as §1

NOMO1 [4] = experiment: AUC of viability dose-response curve (% viability x log10 dose units); higher = less sensitive
Outline: (§2)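 Library compounds in DMSO were applied for 48 h at 37°C at 11 threefold doses (47 μM to 0.79 nM) to medium-adapted leukemia cells in 1536-well plates holding 500 or 1000 cells/well. Luminescence from CellTiter-Glo One was normalised plate by plate against DMSO and cell-free wells. Area under the curve came from trapezoidal integration of a log-logistic fit, after scaling curves that rose above full viability and discarding those that failed quality control. The fit had four parameters and used log10 doses.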

P12-Ichikawa [5] = experiment: as above
Outline: as §2

SEM cells [6] = experiment: as above
Outline: as §2

O=C1NC(O)CCN1[C@@H]1O[C@H](CO)[C@@H](O)[C@H]1O (stereo partly drawn)
cell viability [%]
Conditions | NOMO1 [1] | P12-Ichikawa [2] | SEM cells [3]
HPLM + 10% dialyzed FBS, 0.000781 µM | 145 | 118 | –
HPLM + 10% dialyzed FBS, 0.00234 µM | 124 | 127 | –
HPLM + 10% dialyzed FBS, 0.00702 µM | 123 | 120 | –
HPLM + 10% dialyzed FBS, 0.0211 µM | 142 | 116 | –
HPLM + 10% dialyzed FBS, 0.0632 µM | 113 | 128 | –
HPLM + 10% dialyzed FBS, 0.19 µM | 131 | 129 | –
HPLM + 10% dialyzed FBS, 0.569 µM | 143 | 122 | –
HPLM + 10% dialyzed FBS, 1.71 µM | 116 | 106 | –
HPLM + 10% dialyzed FBS, 5.12 µM | 111 | 102 | –
HPLM + 10% dialyzed FBS, 15.4 µM | 92.2 | 110 | –
HPLM + 10% dialyzed FBS, 46.1 µM | 21 | 112 | –
RPMI 5 mM glucose + 10% FBS, 0.000781 µM | 121 | – | 114
RPMI 5 mM glucose + 10% FBS, 0.00234 µM | 110 | – | 125
RPMI 5 mM glucose + 10% FBS, 0.00702 µM | 104 | – | 123
RPMI 5 mM glucose + 10% FBS, 0.0211 µM | 112 | – | 111
RPMI 5 mM glucose + 10% FBS, 0.0632 µM | 110 | – | 114
RPMI 5 mM glucose + 10% FBS, 0.19 µM | 110 | – | 125
RPMI 5 mM glucose + 10% FBS, 0.569 µM | 105 | – | 117
RPMI 5 mM glucose + 10% FBS, 1.71 µM | 105 | – | 111
RPMI 5 mM glucose + 10% FBS, 5.12 µM | 109 | – | 115
RPMI 5 mM glucose + 10% FBS, 15.4 µM | 108 | – | 134
RPMI 5 mM glucose + 10% FBS, 46.1 µM | 32.3 | – | 122
RPMI 5 mM glucose + 10% dialyzed FBS, 0.000781 µM | 112 | 118 | –
RPMI 5 mM glucose + 10% dialyzed FBS, 0.00234 µM | 108 | 119 | –
RPMI 5 mM glucose + 10% dialyzed FBS, 0.00702 µM | 113 | 131 | –
RPMI 5 mM glucose + 10% dialyzed FBS, 0.0211 µM | 108 | 124 | –
RPMI 5 mM glucose + 10% dialyzed FBS, 0.0632 µM | 110 | 116 | –
RPMI 5 mM glucose + 10% dialyzed FBS, 0.19 µM | 110 | 120 | –
RPMI 5 mM glucose + 10% dialyzed FBS, 0.569 µM | 125 | 120 | –
RPMI 5 mM glucose + 10% dialyzed FBS, 1.71 µM | 126 | 121 | –
RPMI 5 mM glucose + 10% dialyzed FBS, 5.12 µM | 111 | 110 | –
RPMI 5 mM glucose + 10% dialyzed FBS, 15.4 µM | 106 | 115 | –
RPMI 5 mM glucose + 10% dialyzed FBS, 46.1 µM | 34.8 | 107 | –

AUC of viability dose-response curve
Conditions | NOMO1 [4] | P12-Ichikawa [5] | SEM cells [6]
HPLM + 10% dialyzed FBS | 435 | 456 | 463
RPMI 5 mM glucose + 10% FBS | 459 | 437 | 443
RPMI 5 mM glucose + 10% dialyzed FBS | 457 | 467 | 465

O=C1NC(=O)/C(=C/c2cccc(C(F)(F)F)c2)S1
cell viability [%]
Conditions | NOMO1 [1] | P12-Ichikawa [2] | SEM cells [3]
HPLM + 10% dialyzed FBS, 0.000781 µM | 114 | 107 | 100
HPLM + 10% dialyzed FBS, 0.00234 µM | 95.1 | 110 | 93.3
HPLM + 10% dialyzed FBS, 0.00702 µM | 96.8 | 111 | 96.5
HPLM + 10% dialyzed FBS, 0.0211 µM | 113 | 110 | 108
HPLM + 10% dialyzed FBS, 0.0632 µM | 102 | 103 | 101
HPLM + 10% dialyzed FBS, 0.19 µM | 98.4 | 108 | 102
HPLM + 10% dialyzed FBS, 0.569 µM | 108 | 104 | 100
HPLM + 10% dialyzed FBS, 1.71 µM | 99.1 | 110 | 100
HPLM + 10% dialyzed FBS, 5.12 µM | 92.8 | 106 | 107
HPLM + 10% dialyzed FBS, 15.4 µM | 96.9 | 98 | 89.1
HPLM + 10% dialyzed FBS, 46.1 µM | 90 | 100 | 66.7
RPMI 5 mM glucose + 10% FBS, 0.000781 µM | 90.3 | 99.3 | 99.5
RPMI 5 mM glucose + 10% FBS, 0.00234 µM | 90.2 | 96.4 | 100
RPMI 5 mM glucose + 10% FBS, 0.00702 µM | 94.1 | 99.8 | 110
RPMI 5 mM glucose + 10% FBS, 0.0211 µM | 101 | 115 | 108
RPMI 5 mM glucose + 10% FBS, 0.0632 µM | 106 | 94.1 | 112
RPMI 5 mM glucose + 10% FBS, 0.19 µM | 97.8 | 94.8 | 108
RPMI 5 mM glucose + 10% FBS, 0.569 µM | 97.8 | 98.6 | 115
RPMI 5 mM glucose + 10% FBS, 1.71 µM | 93.2 | 98.7 | 104
RPMI 5 mM glucose + 10% FBS, 5.12 µM | 101 | 100 | 108
RPMI 5 mM glucose + 10% FBS, 15.4 µM | 96.5 | 89.4 | 98.9
RPMI 5 mM glucose + 10% FBS, 46.1 µM | 80.1 | 82.9 | 59.7
RPMI 5 mM glucose + 10% dialyzed FBS, 0.000781 µM | 95.5 | 90.3 | 93.7
RPMI 5 mM glucose + 10% dialyzed FBS, 0.00234 µM | 99.6 | 97.4 | 106
RPMI 5 mM glucose + 10% dialyzed FBS, 0.00702 µM | 99 | 91.9 | 106
RPMI 5 mM glucose + 10% dialyzed FBS, 0.0211 µM | 104 | 104 | 115
RPMI 5 mM glucose + 10% dialyzed FBS, 0.0632 µM | 93.1 | 95.9 | 99.6
RPMI 5 mM glucose + 10% dialyzed FBS, 0.19 µM | 92.9 | 93.1 | 94.4
RPMI 5 mM glucose + 10% dialyzed FBS, 0.569 µM | 93.2 | 94.2 | 102
RPMI 5 mM glucose + 10% dialyzed FBS, 1.71 µM | 108 | 99.7 | 108
RPMI 5 mM glucose + 10% dialyzed FBS, 5.12 µM | 103 | 97.4 | 109
RPMI 5 mM glucose + 10% dialyzed FBS, 15.4 µM | 87.9 | 90.2 | 102
RPMI 5 mM glucose + 10% dialyzed FBS, 46.1 µM | 92.2 | 89.2 | 62.5

AUC of viability dose-response curve
Conditions | NOMO1 [4] | P12-Ichikawa [5] | SEM cells [6]
HPLM + 10% dialyzed FBS | 448 | 471 | 463
RPMI 5 mM glucose + 10% FBS | 458 | 466 | 463
RPMI 5 mM glucose + 10% dialyzed FBS | 463 | 453 | 467
